# Article PMC10450872 (ACS Central Science, 2023)
# Values joined by “and” are separate entries in the source; they are usually repeats but may differ in a detail not shown here. Identical values can stand only once.
# Experiments:
# [1] = target: T1, hKOR (OPRK1) (Homo sapiens, UniProt P41145); test: cell-based; settings: for Emax: CHO, read-out: cAMP Emax
# T1 construct: 3HA (triple haemagglutinin tag); expressed in transfected cells
# [2] = target: T2, hKOR (Homo sapiens, UniProt P41145); test: cell-based; settings: for Emax: read-out: βarrestin2 Emax; for EC50: βarrestin2 pEC50
# T2 construct: β-galactosidase enzyme fragment for EFC (ProLink tag of the PathHunter system; name and presence on the receptor from own knowledge); host or cells: U2OS-β-arrestin2-EFC-hKOR (PathHunter) cells
# [3] = target: T2, hKOR; assay type: cell-based
# [4] = target: T3, human MOR (OPRM1) (Homo sapiens, UniProt P35372); assay type: cell-based
# T3 construct: expressed in transfected cells
# [5] = mean EC50 of inhibition of forskolin-stimulated cAMP accumulation via KOR
# 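Wherever Emax is given: 100% = maximum response to 10 µM U69,593.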
# T2 sequence (P41145 whole entry, the tested form may be a part): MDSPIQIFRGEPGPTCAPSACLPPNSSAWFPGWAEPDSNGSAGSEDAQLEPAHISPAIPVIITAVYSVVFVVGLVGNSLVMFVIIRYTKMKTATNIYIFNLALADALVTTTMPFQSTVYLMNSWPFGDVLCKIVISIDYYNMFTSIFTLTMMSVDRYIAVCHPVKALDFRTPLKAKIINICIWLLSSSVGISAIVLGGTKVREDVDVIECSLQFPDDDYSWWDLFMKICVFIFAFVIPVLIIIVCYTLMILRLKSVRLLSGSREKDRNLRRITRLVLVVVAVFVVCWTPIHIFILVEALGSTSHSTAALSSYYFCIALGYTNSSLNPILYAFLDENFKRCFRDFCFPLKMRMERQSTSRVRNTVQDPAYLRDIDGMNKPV
# T1 sequence (P41145 whole entry): as the sequence (P41145 whole entry, the tested form may be a part) above
# T3 sequence (P35372 whole entry): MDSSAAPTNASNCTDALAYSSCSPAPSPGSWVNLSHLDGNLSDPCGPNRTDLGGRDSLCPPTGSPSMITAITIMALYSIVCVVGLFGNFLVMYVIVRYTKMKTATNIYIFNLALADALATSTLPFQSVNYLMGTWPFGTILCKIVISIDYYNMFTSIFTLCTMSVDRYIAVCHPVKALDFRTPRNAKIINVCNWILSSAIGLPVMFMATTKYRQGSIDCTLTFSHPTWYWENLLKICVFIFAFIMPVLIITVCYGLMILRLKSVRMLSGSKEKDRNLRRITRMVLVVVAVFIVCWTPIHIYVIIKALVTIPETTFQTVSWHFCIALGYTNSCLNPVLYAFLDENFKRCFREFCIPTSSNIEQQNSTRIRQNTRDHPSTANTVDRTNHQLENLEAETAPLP
Structure (SMILES),Emax [1] [%],EC50 ([1]; cAMP pEC50) [nM],"EC50 [1, 5] [nM]",Emax [2] [%],EC50 [2] [nM],Bias Factor [3],ΔΔLogτ/KA (cAMP/βarr2) [3],cAMP Emax [1],βarrestin2 Emax [2],increase of potency on replacement of the 3-furyl [1] [fold],selectivity for KOR over MOR [4]
COC(=O)[C@@H]1C[C@H](OC(C)=O)C(=O)[C@@H]2[C@H]3CC=CC(=O)[C@@H]3CC[C@]21C [17a],96,10700,> 10000,–,–,–,–,–,–,–,–
COC(=O)[C@@H]1C[C@H](OC(C)=O)C(=O)[C@@H]2[C@H]3C[C@@H](c4cccc(O)c4)CC(=O)[C@@H]3CC[C@]21C [22a],97,309,–,81,5890,0.72,1.397,–,–,–,–
COC(=O)[C@@H]1C[C@H](OC(C)=O)C(=O)[C@@H]2[C@H]3C[C@H](c4cccc(O)c4)CC(=O)[C@@H]3CC[C@]21C [22b],95,912,–,–,–,–,–,–,–,–,–
COC(=O)[C@@H]1C[C@H](OC(C)=O)C(=O)[C@@H]2[C@H]3C[C@@H](c4ccccc4)CC(=O)[C@@H]3CC[C@]21C [24a],98,9.12,–,120,219,0.39,2.554,–,–,–,–
COC(=O)[C@@H]1C[C@H](OC(C)=O)C(=O)[C@@H]2[C@H]3C[C@H](c4ccccc4)CC(=O)[C@@H]3CC[C@]21C [24b],100,63.1,–,109,891,0.32,3.153,–,–,–,–
C#CC1(O)CC(c2ccccc2)CC2C1CCC1(C)C(C(=O)OC)CC(OC(C)=O)C(=O)C21 (centres unmarked) [40a],–,–,6.9,–,741,9.83 and 7.4–9.8,0.102,105,80,–,–
C#CC1(O)CC(c2ccccc2)CC2C1CCC1(C)C(C(=O)OC)CC(OC(C)=O)C(=O)C21 (centres unmarked) [40b],104,–,4.4,92,794,7.44 and 7.4–9.8,0.134,–,–,–,–
COC(=O)C1CC(OC(C)=O)C(=O)C2C3CC(c4ccoc4)CC(O)C3CCC12C (centres unmarked) [41a],–,5.01,5.1,–,123,1.33,0.754,102,85,–,–
COC(=O)C1CC(OC(C)=O)C(=O)C2C3CC(c4ccoc4)CC(O)C3CCC12C (centres unmarked) [41b],103,0.363,0.4,86,14.1,2.06,0.486,–,–,–,–
"COC(=O)[C@@H]1C[C@H](OC(C)=O)C(=O)[C@@H]2[C@H]3C[C@@H](c4ccoc4)CC(=O)[C@@H]3CC[C@]21C [compound 1, O6C-20-nor-SalA]",96,–,–,108,–,0.34,–,–,–,–,–
COC(=O)[C@@H]1C[C@H](OC(C)=O)C(=O)[C@@H]2[C@H]3C[C@H](c4ccoc4)CC(=O)[C@@H]3CC[C@]21C [compound 18],91,–,–,91,–,0.23,–,–,–,–,–
COC(=O)[C@@H]1C[C@H](OC(C)=O)C(=O)[C@@H]2[C@H]3C[C@@H](c4ccsc4)CC(=O)[C@@H]3CC[C@]21C [compound 19],101,1.48,–,105,72.4,1.11,0.898,–,–,–,–
COC(=O)[C@@H]1C[C@H](OC(C)=O)C(=O)[C@@H]2[C@H]3C[C@@H](c4cccnc4)CC(=O)[C@@H]3CC[C@]21C [compound 20],105,468,–,88,2040,0.17,5.896,–,–,–,–
COC(=O)[C@@H]1C[C@H](OC(C)=O)C(=O)[C@@H]2[C@H]3C[C@@H](c4ccncc4)CC(=O)[C@@H]3CC[C@]21C [compound 21],93,302,–,94,3310,0.23,4.409,–,–,–,–
COC(=O)[C@@H]1C[C@H](OC(C)=O)C(=O)[C@@H]2[C@H]3C[C@@H](c4ccnc(OC)c4)CC(=O)[C@@H]3CC[C@]21C [compound 23],–,–,3390,–,–,–,–,–,–,–,–
COC(=O)[C@@H]1C[C@H](OC(C)=O)C(=O)[C@@H]2[C@H]3C[C@@H](c4ccnc5ccccc45)CC(=O)[C@@H]3CC[C@]21C [compound 25],95,631,–,–,–,–,–,–,–,–,–
COC(=O)[C@@H]1C[C@H](OC(C)=O)C(=O)[C@@H]2[C@H]3C[C@@H](c4coc5ccccc45)CC(=O)[C@@H]3CC[C@]21C [compound 26],104,41.7,–,100,2340,1.87,0.536,–,–,–,–
COC(=O)[C@@H]1C[C@H](OC(C)=O)C(=O)[C@@H]2[C@H]3C[C@@H](c4c[nH]c5ccccc45)CC(=O)[C@@H]3CC[C@]21C [compound 27],92,331,–,14,2040,3.96,0.252,–,–,–,–
COC(=O)[C@@H]1C[C@H](OC(C)=O)C(=O)[C@@H]2[C@H]3C[C@@H](c4ccc(C)cc4)CC(=O)[C@@H]3CC[C@]21C [compound 28],93,398,–,14,1860,3.88,0.258,–,–,–,–
COC(=O)[C@@H]1C[C@H](OC(C)=O)C(=O)[C@@H]2[C@H]3C[C@@H](c4ccc(Cl)cc4)CC(=O)[C@@H]3CC[C@]21C [compound 29],103,67.6,–,51,851,3.16,0.316,–,–,–,–
COC(=O)[C@@H]1C[C@H](OC(C)=O)C(=O)[C@@H]2[C@H]3C[C@@H](c4cccc(C)c4)CC(=O)[C@@H]3CC[C@]21C [compound 30],105,14.5,15,115,794,1.26,0.797,–,–,–,–
COC(=O)[C@@H]1C[C@H](OC(C)=O)C(=O)[C@@H]2[C@H]3C[C@@H](c4cccc(Cl)c4)CC(=O)[C@@H]3CC[C@]21C [compound 31],103,4.27,4.2,123,631,2.50,0.399,–,–,–,–
COC(=O)[C@@H]1C[C@H](OC(C)=O)C(=O)[C@@H]2[C@H]3C[C@@H](C4=CCCCC4)CC(=O)[C@@H]3CC[C@]21C [compound 32],–,–,0.3,–,–,–,–,–,–,20,–
COC(=O)[C@@H]1C[C@H](OC(C)=O)C(=O)[C@@H]2[C@H]3C[C@@H](Sc4ccccc4)CC(=O)[C@@H]3CC[C@]21C [compound 33],92,–,96,131,4270,0.51,1.946,–,–,–,–
COC(=O)[C@@H]1C[C@H](OC(C)=O)C(=O)[C@@H]2[C@H]3C[C@@H](c4ccccc4)CC(=O)N[C@@H]3CC[C@]21C [compound 35],107,–,46,67,1820,5.48,0.182,–,–,–,–
COC(=O)C1CC(OC(C)=O)C(=O)C2C3CC(c4ccoc4)CC(=NO)C3CCC12C (centres unmarked) [compound 36],105,0.347,0.4,83,12.9,2.66,0.375,–,–,–,–
COC(=O)C1CC(OC(C)=O)C(=O)C2C3CC(c4ccccc4)CC(=NO)C3CCC12C (centres unmarked) [compound 37],105,0.417,0.4,80,42.7,8.60 and 7.4–9.8,0.116,–,–,–,high selectivity for KOR over MOR was also preserved
CON=C1CC(c2ccccc2)CC2C1CCC1(C)C(C(=O)OC)CC(OC(C)=O)C(=O)C21 (centres unmarked) [compound 38],100,2.95,–,98,245,2.28,0.439,–,–,–,–
COC(=O)C1CC(OC(C)=O)C(=O)C2C3CC(c4ccccc4)CC(=NOC(C)=O)C3CCC12C (centres unmarked) [compound 39],105,1.26,–,83,97.7,5.43,0.184,–,–,–,–
